Measurements reported in BindingDB's records for doi:10.1021/jm050532w (Glaxosmithkline, 2005).

Legend:
[1] = target: T1, Oxysterols receptor LXR-alpha (Homo sapiens, UniProt Q13133); experiment: Cell-Free Ligand Sensing Assay (LiSA)-LXRalpha-SRC1 Assay; conditions: pH 7.5; 22 °C
T1 sequence (Q13133 whole entry): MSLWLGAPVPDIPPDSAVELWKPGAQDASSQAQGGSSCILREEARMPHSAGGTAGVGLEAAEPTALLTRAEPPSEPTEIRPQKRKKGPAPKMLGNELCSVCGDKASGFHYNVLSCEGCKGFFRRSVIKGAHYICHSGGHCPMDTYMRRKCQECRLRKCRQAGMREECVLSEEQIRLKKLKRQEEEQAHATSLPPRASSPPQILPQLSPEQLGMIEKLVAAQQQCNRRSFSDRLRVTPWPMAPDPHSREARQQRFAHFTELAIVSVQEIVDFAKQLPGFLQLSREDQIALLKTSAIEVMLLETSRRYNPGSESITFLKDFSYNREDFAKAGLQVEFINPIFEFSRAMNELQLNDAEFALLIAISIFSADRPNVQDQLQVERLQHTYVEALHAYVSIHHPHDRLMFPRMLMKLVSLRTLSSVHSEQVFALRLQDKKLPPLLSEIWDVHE
Description: (§1) The LXR LiSA measures the ligand-dependent recruitment of a 25 amino acid fragment of the steroid receptor coactivator 1 (SRC1) to the ligand-binding domain of the receptor. The biotinylated protein was incubated with streptavidin-AlloPhycoCyanin, biotinylated SRC-1 peptide, and streptavidin-labeled europium. The fluorescence resonance energy transfer was then counted on a Wallac Victor fluorescent plate reader in a time-resolved mode.

[2] = target: T2, Oxysterols receptor LXR-beta (Homo sapiens, UniProt P55055); experiment: Cell-Free Ligand Sensing Assay (LiSA)-LXRbeta-SRC1 Assay; conditions: pH 7.5; 22 °C
T2 sequence (P55055 whole entry): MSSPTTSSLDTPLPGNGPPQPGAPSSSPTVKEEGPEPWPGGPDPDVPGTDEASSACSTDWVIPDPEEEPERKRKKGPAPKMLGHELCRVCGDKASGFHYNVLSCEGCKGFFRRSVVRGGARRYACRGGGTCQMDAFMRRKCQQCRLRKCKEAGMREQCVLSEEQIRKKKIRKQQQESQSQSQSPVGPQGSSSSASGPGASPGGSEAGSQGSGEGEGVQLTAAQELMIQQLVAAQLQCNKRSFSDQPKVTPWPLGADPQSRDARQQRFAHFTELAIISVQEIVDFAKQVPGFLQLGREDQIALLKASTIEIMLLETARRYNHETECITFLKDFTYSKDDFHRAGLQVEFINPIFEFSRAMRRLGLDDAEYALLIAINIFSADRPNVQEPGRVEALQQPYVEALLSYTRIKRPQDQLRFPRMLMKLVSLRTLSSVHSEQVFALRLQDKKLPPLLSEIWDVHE
Description: as §1

- EC50 [1]: 275 nM
- EC50 [2]: 260 nM
Structure (SMILES): COc1ccc(N=C2C(=O)N(c3ccccc3)C(=O)C2c2ccccc2)cc1 (configuration not stated) [3-[(4-methoxyphenyl)amino]-1,4-diphenyl-2,5-dihydro-1H-pyrrole-2,5-dione]
